Results taken from US20210230203A1, “Amphiphilic Kanamycin Compositions and Methods” (priority 2020, published 2021).
In brackets after ≈: the same amount, converted by molar mass.

Experiments:
Apaphysomyces = assay: MIC against various species, CLSI M27 & M38 (Table 4); assay type: cell-based, Apophysomyces; conditions: 24-72 hours
Rhizopus arrhizus = assay: MIC against filamentous and dimorphic fungi, CLSI M27 & M38 (Table 3); assay type: cell-based; conditions: 24-72 hours
C. auris = assay: MIC against various species, CLSI M27 & M38 (Table 4); conditions: 24-72 hours
Histoplasma capsulatum = assay: microbe, parasite or virus in culture; assay type: cell-based; conditions: Table 3, RPMI 0.165M MOPS, 24-72 hours
Scedosporium = assay: MIC against various species, CLSI M27 & M38 (Table 4); conditions: 24-72 hours
P. variotil = assay: as above; assay type: cell-based, Paecilomyces variotii; conditions: P. variotil QC, RPMI 0.165M MOPS, 24-72 hours
Candida guillermondii = assay: MIC against yeast, CLSI M27 & M38 (Table 2); conditions: 24-72 hours
Rhodotorula pilimanae = assay: MIC against fungal strains (Table 1); assay type: cell-based
Fusarium = assay: MIC against various species, CLSI M27 & M38 (Table 4); assay type: cell-based; conditions: 24-72 hours
Saksenaea sp. = assay: MIC against filamentous and dimorphic fungi, CLSI M27 & M38 (Table 3); assay type: cell-based, Saksenaea species; conditions: 24-72 hours
[1] = tested on: Fusarium graminearum B4-5A; assay: microbe, parasite or virus in culture; assay type: cell-based; conditions: Fusarium graminearum B4-5A
Candida albicans 64124 = assay: MIC against fungal strains (Table 1); assay type: cell-based
Candida albicans MYA2876 = assay: MIC against fungal strains (Table 1); assay type: cell-based; conditions: Candida albicans MYA2876
Candida glabrata = assay: MIC against yeast, CLSI M27 & M38 (Table 2); conditions: 24-72 hours
S. aureus (ATCC 25923) = assay: MIC against bacterial strains; assay type: cell-based
Candida parapsilosis = assay: MIC against yeast, CLSI M27 & M38 (Table 2); conditions: Table 2, RPMI 0.165M MOPS, 24-72 hours
P. variatii = assay: MIC against filamentous and dimorphic fungi, CLSI M27 & M38 (Table 3); assay type: cell-based, Paecilomyces variotii; conditions: P. variatii MYA-3630, RPMI 0.165M MOPS, 24-72 hours
[2] = tested on: S. aureus (ATCC 33591) MRSA; assay type: cell-based
C. krusei = assay: MIC against various species, CLSI M27 & M38 (Table 4); conditions: C. krusei AC ATCC 6258; Table 4; RPMI 0.165M MOPS; 24-72 hours
C. parapsilosis = assay: as above; conditions: C. parapsilosis QC ATCC 22019; Table 4; RPMI 0.165M MOPS; 24-72 hours
L. prolificans = assay: as above; conditions: L. prolificans LP1; Table 4; RPMI 0.165M MOPS; 24-72 hours
C. albicans = assay: as above; conditions: 24-72 hours
[3] = Apaphysomyces APO1, RPMI 0.165M MOPS
[4] = Apaphysomyces APO2, RPMI 0.165M MOPS
[5] = Apaphysomyces APO3, RPMI 0.165M MOPS
[6] = Rhizopus arrhizus 99-880, RPMI 0.165M MOPS
[7] = Rhizopus arrhizus 99-892, RPMI 0.165M MOPS
[8] = Rhizopus arrhizus RA1, RPMI 0.165M MOPS
[9] = C. auris DI17-46, RPMI 0.165M MOPS
[10] = C. auris DI17-47, RPMI 0.165M MOPS
[11] = C. auris DI17-48, RPMI 0.165M MOPS
[12] = Scedosporium SA1, RPMI 0.165M MOPS
[13] = Scedosporium SB1, RPMI 0.165M MOPS
[14] = Candida guillermondii CGUI1, RPMI 0.165M MOPS
[15] = Candida guillermondii CGUI2, RPMI 0.165M MOPS
[16] = Candida guillermondii CGUI3, RPMI 0.165M MOPS
[17] = Saksenaea sp. SK1, RPMI 0.165M MOPS
[18] = Saksenaea sp. SK2, RPMI 0.165M MOPS
[19] = Saksenaea sp. SK3, RPMI 0.165M MOPS
[20] = Candida glabrata CG1, RPMI 0.165M MOPS
[21] = Candida glabrata CG2, RPMI 0.165M MOPS
[22] = Candida glabrata CG3, RPMI 0.165M MOPS
[23] = C. albicans CA1, RPMI 0.165M MOPS
[24] = C. albicans CA2, RPMI 0.165M MOPS
[25] = C. albicans CA3, RPMI 0.165M MOPS

CCCCCCCCCCCCCCCC(=O)NC[C@H]1O[C@H](O[C@H]2[C@H](O)[C@@H](O[C@H]3O[C@H](CO)[C@@H](O)[C@H](N)[C@H]3O)[C@H](N)C[C@@H]2N)[C@H](O)[C@@H](O)[C@@H]1O [KI06]
Minimum inhibitory concentration 50% (Apaphysomyces; [3]): 2 µg/mL (≈ 2.77 µM) | Minimum inhibitory concentration 100% (Apaphysomyces; [3]): 2 µg/mL (≈ 2.77 µM) | Minimum inhibitory concentration 50% (Apaphysomyces; [4]): 1 µg/mL (≈ 1.38 µM) | Minimum inhibitory concentration 100% (Apaphysomyces; [4]): 4 µg/mL (≈ 5.53 µM) | Minimum inhibitory concentration 50% (Apaphysomyces; [5]): 1 µg/mL (≈ 1.38 µM) | Minimum inhibitory concentration 100% (Apaphysomyces; [5]): 4 µg/mL (≈ 5.53 µM) | Minimum inhibitory concentration 50% (Rhizopus arrhizus; [6]): 2 µg/mL (≈ 2.77 µM) | Minimum inhibitory concentration 100% (Rhizopus arrhizus; [6]): 4 µg/mL (≈ 5.53 µM) | Minimum inhibitory concentration 50% (Rhizopus arrhizus; [7]): 2 µg/mL (≈ 2.77 µM) | Minimum inhibitory concentration 100% (Rhizopus arrhizus; [7]): 4 µg/mL (≈ 5.53 µM) | Minimum inhibitory concentration 50% (Rhizopus arrhizus; [8]): 2 µg/mL (≈ 2.77 µM) | Minimum inhibitory concentration 100% (Rhizopus arrhizus; [8]): 4 µg/mL (≈ 5.53 µM) | Minimum inhibitory concentration 50% (C. auris; [9]): 4 µg/mL (≈ 5.53 µM) | Minimum inhibitory concentration 100% (C. auris; [9]): 8 µg/mL (≈ 11.1 µM) | Minimum inhibitory concentration 50% (C. auris; [10]): 2 µg/mL (≈ 2.77 µM) | Minimum inhibitory concentration 100% (C. auris; [10]): 4 µg/mL (≈ 5.53 µM) | Minimum inhibitory concentration 50% (C. auris; [11]): 1 µg/mL (≈ 1.38 µM) | Minimum inhibitory concentration 100% (C. auris; [11]): 4 µg/mL (≈ 5.53 µM) | Minimum inhibitory concentration 50% (Histoplasma capsulatum; Histoplasma capsulatum HC1): 2 µg/mL (≈ 2.77 µM) | Minimum inhibitory concentration 100% (Histoplasma capsulatum; Histoplasma capsulatum HC1): 4 µg/mL (≈ 5.53 µM) | Minimum inhibitory concentration 50% (Histoplasma capsulatum; Histoplasma capsulatum HC2): 4 µg/mL (≈ 5.53 µM) | Minimum inhibitory concentration 100% (Histoplasma capsulatum; Histoplasma capsulatum HC2): 8 µg/mL (≈ 11.1 µM) | Minimum inhibitory concentration 50% (Histoplasma capsulatum; Histoplasma capsulatum HC3): 2 µg/mL (≈ 2.77 µM) | Minimum inhibitory concentration 100% (Histoplasma capsulatum; Histoplasma capsulatum HC3): 4 µg/mL (≈ 5.53 µM) | Minimum inhibitory concentration 50% (Scedosporium; [12]): 2 µg/mL (≈ 2.77 µM) | Minimum inhibitory concentration 100% (Scedosporium; [12]): 4 µg/mL (≈ 5.53 µM) | Minimum inhibitory concentration 50% (Scedosporium; [13]): 1 µg/mL (≈ 1.38 µM) | Minimum inhibitory concentration 100% (Scedosporium; [13]): 8 µg/mL (≈ 11.1 µM) | Minimum inhibitory concentration 50% (P. variotil): 8 µg/mL (≈ 11.1 µM) | Minimum inhibitory concentration 100% (P. variotil): 8 µg/mL (≈ 11.1 µM) | Minimum inhibitory concentration 50% (Candida guillermondii; [14]): 4 µg/mL (≈ 5.53 µM) | Minimum inhibitory concentration 100% (Candida guillermondii; [14]): 8 µg/mL (≈ 11.1 µM) | Minimum inhibitory concentration 50% (Candida guillermondii; [15]): 4 µg/mL (≈ 5.53 µM) | Minimum inhibitory concentration 100% (Candida guillermondii; [15]): 8 µg/mL (≈ 11.1 µM) | Minimum inhibitory concentration 50% (Candida guillermondii; [16]): 4 µg/mL (≈ 5.53 µM) | Minimum inhibitory concentration 100% (Candida guillermondii; [16]): 8 µg/mL (≈ 11.1 µM) | Minimum inhibitory concentration (Rhodotorula pilimanae): 4 µg/mL (≈ 5.53 µM) | Minimum inhibitory concentration 50% (Fusarium; Fusarium FO1, RPMI 0.165M MOPS): 8 µg/mL (≈ 11.1 µM) | Minimum inhibitory concentration 100% (Fusarium; Fusarium FO1, RPMI 0.165M MOPS): 8 µg/mL (≈ 11.1 µM) | Minimum inhibitory concentration 50% (Fusarium; Fusarium FO2, RPMI 0.165M MOPS): 4 µg/mL (≈ 5.53 µM) | Minimum inhibitory concentration 100% (Fusarium; Fusarium FO2, RPMI 0.165M MOPS): 8 µg/mL (≈ 11.1 µM) | Minimum inhibitory concentration 50% (Fusarium; Fusarium FS1, RPMI 0.165M MOPS): 4 µg/mL (≈ 5.53 µM) | Minimum inhibitory concentration 100% (Fusarium; Fusarium FS1, RPMI 0.165M MOPS): 8 µg/mL (≈ 11.1 µM) | Minimum inhibitory concentration 50% (Saksenaea sp.; [17]): 1 µg/mL (≈ 1.38 µM) | Minimum inhibitory concentration 100% (Saksenaea sp.; [17]): 1 µg/mL (≈ 1.38 µM) | Minimum inhibitory concentration 50% (Saksenaea sp.; [18]): 1 µg/mL (≈ 1.38 µM) | Minimum inhibitory concentration 100% (Saksenaea sp.; [18]): 2 µg/mL (≈ 2.77 µM) | Minimum inhibitory concentration 50% (Saksenaea sp.; [19]): 1 µg/mL (≈ 1.38 µM) | Minimum inhibitory concentration 100% (Saksenaea sp.; [19]): 2 µg/mL (≈ 2.77 µM) | Minimum inhibitory concentration [1]: 4 µg/mL (≈ 5.53 µM) | Minimum inhibitory concentration (Candida albicans 64124): 8 µg/mL (≈ 11.1 µM) | Minimum inhibitory concentration (Candida albicans MYA2876): 8 µg/mL (≈ 11.1 µM) | Minimum inhibitory concentration 50% (Candida glabrata; [20]): 4 µg/mL (≈ 5.53 µM) | Minimum inhibitory concentration 100% (Candida glabrata; [20]): 8 µg/mL (≈ 11.1 µM) | Minimum inhibitory concentration 50% (Candida glabrata; [21]): 4 µg/mL (≈ 5.53 µM) | Minimum inhibitory concentration 100% (Candida glabrata; [21]): 4 µg/mL (≈ 5.53 µM) | Minimum inhibitory concentration 50% (Candida glabrata; [22]): 4 µg/mL (≈ 5.53 µM) | Minimum inhibitory concentration 100% (Candida glabrata; [22]): 4 µg/mL (≈ 5.53 µM) | Minimum inhibitory concentration (S. aureus (ATCC 25923)): 16 µg/mL (≈ 22.1 µM) | Minimum inhibitory concentration 50% (Candida parapsilosis; C. parapsilosis ATCC 22019): 4 µg/mL (≈ 5.53 µM) | Minimum inhibitory concentration 100% (Candida parapsilosis; C. parapsilosis ATCC 22019): 8 µg/mL (≈ 11.1 µM) | Minimum inhibitory concentration 50% (Candida parapsilosis; Candida parapsilosis CP1): 4 µg/mL (≈ 5.53 µM) | Minimum inhibitory concentration 100% (Candida parapsilosis; Candida parapsilosis CP1): 8 µg/mL (≈ 11.1 µM) | Minimum inhibitory concentration 50% (Candida parapsilosis; Candida parapsilosis CP2): 4 µg/mL (≈ 5.53 µM) | Minimum inhibitory concentration 100% (Candida parapsilosis; Candida parapsilosis CP2): 8 µg/mL (≈ 11.1 µM) | Minimum inhibitory concentration 50% (Candida parapsilosis; Candida parapsilosis CP3): 8 µg/mL (≈ 11.1 µM) | Minimum inhibitory concentration 100% (Candida parapsilosis; Candida parapsilosis CP3): 16 µg/mL (≈ 22.1 µM) | Minimum inhibitory concentration 50% (P. variatii): 8 µg/mL (≈ 11.1 µM) | Minimum inhibitory concentration 100% (P. variatii): 16 µg/mL (≈ 22.1 µM) | Minimum inhibitory concentration [2]: 16 µg/mL (≈ 22.1 µM) | Minimum inhibitory concentration 50% (C. krusei): 4 µg/mL (≈ 5.53 µM) | Minimum inhibitory concentration 100% (C. krusei): 8 µg/mL (≈ 11.1 µM) | Minimum inhibitory concentration 50% (C. parapsilosis): 4 µg/mL (≈ 5.53 µM) | Minimum inhibitory concentration 100% (C. parapsilosis): 8 µg/mL (≈ 11.1 µM) | Minimum inhibitory concentration 50% (L. prolificans): 2 µg/mL (≈ 2.77 µM) | Minimum inhibitory concentration 100% (L. prolificans): 2 µg/mL (≈ 2.77 µM) | Minimum inhibitory concentration 50% (C. albicans; [23]): 4 µg/mL (≈ 5.53 µM) | Minimum inhibitory concentration 100% (C. albicans; [23]): 4 µg/mL (≈ 5.53 µM) | Minimum inhibitory concentration 50% (C. albicans; [24]): 4 µg/mL (≈ 5.53 µM) | Minimum inhibitory concentration 100% (C. albicans; [24]): 8 µg/mL (≈ 11.1 µM) | Minimum inhibitory concentration 50% (C. albicans; [25]): 2 µg/mL (≈ 2.77 µM) | Minimum inhibitory concentration 100% (C. albicans; [25]): 4 µg/mL (≈ 5.53 µM)
